Source: article PMC9742383, “From tryptamine to the discovery of efficient multi-target directed ligands against cholinesterase-associated neurodegenerative disorders” (Frontiers in Pharmacology, 2022)

target: BuChE (Equus caballus, UniProt P81908); assay: Ellman colorimetric assay; type: biochemical; parameters: gene BCHE; native enzyme from equine serum, purchased from Sigma-Aldrich; conditions: read-out: IC50 ± SD ^a / BuChE ^a
Sequence (P81908 whole entry): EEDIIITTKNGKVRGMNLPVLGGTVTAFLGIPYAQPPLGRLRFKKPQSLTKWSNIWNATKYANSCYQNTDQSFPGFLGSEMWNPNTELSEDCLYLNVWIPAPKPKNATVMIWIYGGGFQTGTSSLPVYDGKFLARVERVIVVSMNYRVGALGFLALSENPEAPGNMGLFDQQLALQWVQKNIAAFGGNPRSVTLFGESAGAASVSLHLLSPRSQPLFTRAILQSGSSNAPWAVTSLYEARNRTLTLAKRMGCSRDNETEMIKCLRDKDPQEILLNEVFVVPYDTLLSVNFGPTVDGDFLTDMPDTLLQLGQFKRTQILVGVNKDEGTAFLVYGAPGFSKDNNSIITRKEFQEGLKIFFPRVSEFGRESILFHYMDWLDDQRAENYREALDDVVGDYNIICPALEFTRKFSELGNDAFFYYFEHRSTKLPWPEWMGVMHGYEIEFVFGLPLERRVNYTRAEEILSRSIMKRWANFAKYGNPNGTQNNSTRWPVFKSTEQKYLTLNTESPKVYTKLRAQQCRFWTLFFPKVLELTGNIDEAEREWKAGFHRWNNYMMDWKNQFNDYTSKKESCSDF

Row | SMILES | IC50
1 | O=C(NC1CCCCC1)Oc1ccc2[nH]cc(CCNCc3ccccc3)c2c1 [3h, 3-(2-(benzylamino)ethyl)-1H-indol-5-yl cyclohexylcarbamate] | 0.0435 ± 0.00335 µM
2 | O=C(Nc1ccccc1)Oc1ccc2[nH]cc(CCNCc3ccccc3)c2c1 [3i, 3-(2-(benzylamino)ethyl)-1H-indol-5-yl phenylcarbamate] | 0.11 ± 0.00522 µM
3 | CN(C)C(=O)Oc1ccc2[nH]cc(CCNCc3ccccc3)c2c1 [3j, 3-(2-(benzylamino)ethyl)-1H-indol-5-yl dimethylcarbamate] | 0.132 ± 0.00359 µM
4 | CCN(CC)C(=O)Oc1ccc2[nH]cc(CCNCc3ccccc3)c2c1 [3k, 3-(2-(benzylamino)ethyl)-1H-indol-5-yl diethylcarbamate] | 0.0725 ± 0.00655 µM
5 | CCCN(CCC)C(=O)Oc1ccc2[nH]cc(CCNCc3ccccc3)c2c1 [3l, 3-(2-(benzylamino)ethyl)-1H-indol-5-yl dipropylcarbamate] | 0.044 ± 0.00184 µM
6 | CCCCN(CCCC)C(=O)Oc1ccc2[nH]cc(CCNCc3ccccc3)c2c1 [3m, 3-(2-(benzylamino)ethyl)-1H-indol-5-yl dibutylcarbamate] | 0.0974 ± 0.00853 µM
7 | O=C(Oc1ccc2[nH]cc(CCNCc3ccccc3)c2c1)N(c1ccccc1)c1ccccc1 [3n, 3-(2-(benzylamino)ethyl)-1H-indol-5-yl diphenylcarbamate] | 0.156 ± 0.00358 µM
8 | CON(C)C(=O)Oc1ccc2[nH]cc(CCNCc3ccccc3)c2c1 [3o, 3-(2-(benzylamino)ethyl)-1H-indol-5-yl methoxy(methyl)carbamate] | 0.0588 ± 0.00292 µM
9 | CN(C(=O)Oc1ccc2[nH]cc(CCNCc3ccccc3)c2c1)c1ccccc1 [3p, 3-(2-(benzylamino)ethyl)-1H-indol-5-yl methyl(phenyl)carbamate] | 0.0254 ± 0.00027 µM
10 | O=C(Oc1ccc2[nH]cc(CCNCc3ccccc3)c2c1)N1CCC1 [3q, 3-(2-(benzylamino)ethyl)-1H-indol-5-yl azetidine-1-carboxylate] | 0.00258 ± 0.00013 µM
11 | O=C(Oc1ccc2[nH]cc(CCNCc3ccccc3)c2c1)N1CCCC1 [3r] | 0.0405 ± 0.00179 µM
12 | O=C(Oc1ccc2[nH]cc(CCNCc3ccccc3)c2c1)N1CCCCCC1 [3t, 3-(2-(benzylamino)ethyl)-1H-indol-5-yl azepane-1-carboxylate] | 0.0232 ± 0.00094 µM
13 | O=C(Oc1ccc2[nH]cc(CCNCc3ccccc3)c2c1)N1CCOCC1 [3u, 3-(2-(benzylamino)ethyl)-1H-indol-5-yl morpholine-4-carboxylate] | 0.112 ± 0.00737 µM
14 | CCCCCNC(=O)Oc1ccc2[nH]cc(CCN)c2c1 [4c, 3-(2-aminoethyl)-1H-indol-5-yl pentylcarbamate] | 0.121 ± 0.00838 µM
15 | CCCCCCNC(=O)Oc1ccc2[nH]cc(CCN)c2c1 [4d, 3-(2-aminoethyl)-1H-indol-5-yl hexylcarbamate] | 0.0277 ± 0.00204 µM

tested on: not listed separately; assay: in vitro; parameters: MTT cytotoxicity, absorbance at 570 nm, HT-22 mouse hippocampal neuronal cells; conditions: mouse, ht-22 hippocampal neuronal cells; read-out: IC50 ± SD / HT-22 ^a
Method: The cell lines present in this study were purchased from the China Center for Type Collection (CCTCC, China). For cytotoxicity assay, HT-22, BV2, SH-SY5Y, HepG2, and LO2 cells were incubated in 96-well plates at the density of 5 × 10³ per well. After incubation for 12 h at 37°C, the tested compounds with the required concentrations were added to the corresponding wells and continuously incubated for 24 h at 37°C. Then, the prepared MTT (3-[4,5-dimethyl-2-thiazolyl]-2,5-diphenyl-2H-tetrazolium bromide) solution was added to each well and co-incubated for another 4 h at 37°C. Then, the supernatant was removed, and 100 μl DMSO was added to each well. The OD value of each well was detected at 570 nm using a microplate reader (Bio-Rad Laboratories, CA, United States). The IC50 values were calculated using IBM SPSS Statistics 25.0 software. All experiments were performed in triplicate, and the results were shown as the mean ± SD. In order to explore the applicability of the synthesized CTDs in neurological diseases, the neuronal cytotoxicity of the synthesized compounds was evaluated on mouse hippocampal neuronal cell line HT-22. […] In view of these CTDs endowed strong inhibition efficacy on BuChE, we preliminarily evaluated their safety range by comparing their IC50 values on cytotoxicity and BuChE inhibitory activity. […] Therefore, the series of compounds with dibenzyl groups, especially compounds bearing ring carbon alkyl chains (2f-2h) and tertiary amine residues (2j-2u) with little cytotoxicity on HT-22, can be considered as potential lead building blocks for further structure optimization to develop novel effective agents against neurological diseases.

Row | SMILES | CC50 at 24 h
16 | O=C(NC1CCCCC1)Oc1ccc2[nH]cc(CCNCc3ccccc3)c2c1 [3h, 3-(2-(benzylamino)ethyl)-1H-indol-5-yl cyclohexylcarbamate] | 11.6 ± 0.34 µM
17 | O=C(Nc1ccccc1)Oc1ccc2[nH]cc(CCNCc3ccccc3)c2c1 [3i, 3-(2-(benzylamino)ethyl)-1H-indol-5-yl phenylcarbamate] | 18.4 ± 0.43 µM
18 | CN(C)C(=O)Oc1ccc2[nH]cc(CCNCc3ccccc3)c2c1 [3j, 3-(2-(benzylamino)ethyl)-1H-indol-5-yl dimethylcarbamate] | 21.7 ± 0.72 µM
19 | CCN(CC)C(=O)Oc1ccc2[nH]cc(CCNCc3ccccc3)c2c1 [3k, 3-(2-(benzylamino)ethyl)-1H-indol-5-yl diethylcarbamate] | 16 ± 0.39 µM
20 | CCCN(CCC)C(=O)Oc1ccc2[nH]cc(CCNCc3ccccc3)c2c1 [3l, 3-(2-(benzylamino)ethyl)-1H-indol-5-yl dipropylcarbamate] | 6.31 ± 0.39 µM
21 | CCCCN(CCCC)C(=O)Oc1ccc2[nH]cc(CCNCc3ccccc3)c2c1 [3m, 3-(2-(benzylamino)ethyl)-1H-indol-5-yl dibutylcarbamate] | 3.87 ± 0.35 µM
22 | O=C(Oc1ccc2[nH]cc(CCNCc3ccccc3)c2c1)N(c1ccccc1)c1ccccc1 [3n, 3-(2-(benzylamino)ethyl)-1H-indol-5-yl diphenylcarbamate] | 0.54 ± 0.03 µM
23 | CON(C)C(=O)Oc1ccc2[nH]cc(CCNCc3ccccc3)c2c1 [3o, 3-(2-(benzylamino)ethyl)-1H-indol-5-yl methoxy(methyl)carbamate] | 50.4 ± 1.07 µM
24 | CN(C(=O)Oc1ccc2[nH]cc(CCNCc3ccccc3)c2c1)c1ccccc1 [3p, 3-(2-(benzylamino)ethyl)-1H-indol-5-yl methyl(phenyl)carbamate] | 11 ± 1.12 µM
25 | O=C(Oc1ccc2[nH]cc(CCNCc3ccccc3)c2c1)N1CCC1 [3q, 3-(2-(benzylamino)ethyl)-1H-indol-5-yl azetidine-1-carboxylate] | 57.8 ± 2.88 µM
26 | O=C(Oc1ccc2[nH]cc(CCNCc3ccccc3)c2c1)N1CCCC1 [3r] | 31.7 ± 1.64 µM
27 | O=C(Oc1ccc2[nH]cc(CCNCc3ccccc3)c2c1)N1CCCCCC1 [3t, 3-(2-(benzylamino)ethyl)-1H-indol-5-yl azepane-1-carboxylate] | 11.9 ± 0.39 µM
28 | O=C(Oc1ccc2[nH]cc(CCNCc3ccccc3)c2c1)N1CCOCC1 [3u, 3-(2-(benzylamino)ethyl)-1H-indol-5-yl morpholine-4-carboxylate] | 51.3 ± 2.55 µM
29 | CCCCCNC(=O)Oc1ccc2[nH]cc(CCN)c2c1 [4c, 3-(2-aminoethyl)-1H-indol-5-yl pentylcarbamate] | > 100 µM
30 | CCCCCCNC(=O)Oc1ccc2[nH]cc(CCN)c2c1 [4d, 3-(2-aminoethyl)-1H-indol-5-yl hexylcarbamate] | 25.2 ± 1.37 µM

target: T1, AChE (Electrophorus electricus, UniProt O42275); assay: Ellman colorimetric assay; type: biochemical; conditions: read-out: IC50 ± SD ^a / AChE ^a
T1 construct: native enzyme, Type V-S lyophilized powder, Sigma-Aldrich
T1 sequence (O42275 24-633): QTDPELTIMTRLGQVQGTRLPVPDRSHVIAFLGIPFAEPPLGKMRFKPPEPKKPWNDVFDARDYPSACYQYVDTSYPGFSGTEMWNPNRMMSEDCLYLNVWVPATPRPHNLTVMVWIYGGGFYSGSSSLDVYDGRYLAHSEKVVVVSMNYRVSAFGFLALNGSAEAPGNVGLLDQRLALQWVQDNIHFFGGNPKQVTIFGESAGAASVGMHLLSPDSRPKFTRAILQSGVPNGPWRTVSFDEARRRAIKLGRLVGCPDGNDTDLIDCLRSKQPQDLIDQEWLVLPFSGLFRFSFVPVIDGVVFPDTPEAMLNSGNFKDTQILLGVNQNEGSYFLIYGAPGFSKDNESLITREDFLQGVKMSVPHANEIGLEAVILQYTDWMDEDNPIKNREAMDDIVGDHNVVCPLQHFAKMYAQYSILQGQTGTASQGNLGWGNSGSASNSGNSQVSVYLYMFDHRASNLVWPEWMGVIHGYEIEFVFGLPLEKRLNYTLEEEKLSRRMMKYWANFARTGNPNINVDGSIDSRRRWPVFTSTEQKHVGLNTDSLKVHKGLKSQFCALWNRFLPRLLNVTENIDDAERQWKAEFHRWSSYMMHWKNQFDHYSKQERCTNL

Row | SMILES | IC50
31 | O=C(NC1CCCCC1)Oc1ccc2[nH]cc(CCNCc3ccccc3)c2c1 [3h, 3-(2-(benzylamino)ethyl)-1H-indol-5-yl cyclohexylcarbamate] | > 100 µM
32 | O=C(Nc1ccccc1)Oc1ccc2[nH]cc(CCNCc3ccccc3)c2c1 [3i, 3-(2-(benzylamino)ethyl)-1H-indol-5-yl phenylcarbamate] | 23.3 µM
33 | CN(C)C(=O)Oc1ccc2[nH]cc(CCNCc3ccccc3)c2c1 [3j, 3-(2-(benzylamino)ethyl)-1H-indol-5-yl dimethylcarbamate] | 1.91 µM
34 | CCN(CC)C(=O)Oc1ccc2[nH]cc(CCNCc3ccccc3)c2c1 [3k, 3-(2-(benzylamino)ethyl)-1H-indol-5-yl diethylcarbamate] | > 100 µM
35 | CCCN(CCC)C(=O)Oc1ccc2[nH]cc(CCNCc3ccccc3)c2c1 [3l, 3-(2-(benzylamino)ethyl)-1H-indol-5-yl dipropylcarbamate] | > 100 µM
36 | CCCCN(CCCC)C(=O)Oc1ccc2[nH]cc(CCNCc3ccccc3)c2c1 [3m, 3-(2-(benzylamino)ethyl)-1H-indol-5-yl dibutylcarbamate] | 19.8 µM
37 | O=C(Oc1ccc2[nH]cc(CCNCc3ccccc3)c2c1)N(c1ccccc1)c1ccccc1 [3n, 3-(2-(benzylamino)ethyl)-1H-indol-5-yl diphenylcarbamate] | > 100 µM
38 | CON(C)C(=O)Oc1ccc2[nH]cc(CCNCc3ccccc3)c2c1 [3o, 3-(2-(benzylamino)ethyl)-1H-indol-5-yl methoxy(methyl)carbamate] | 2.61 µM
39 | CN(C(=O)Oc1ccc2[nH]cc(CCNCc3ccccc3)c2c1)c1ccccc1 [3p, 3-(2-(benzylamino)ethyl)-1H-indol-5-yl methyl(phenyl)carbamate] | 7.05 µM
40 | O=C(Oc1ccc2[nH]cc(CCNCc3ccccc3)c2c1)N1CCC1 [3q, 3-(2-(benzylamino)ethyl)-1H-indol-5-yl azetidine-1-carboxylate] | 0.482 ± 0.00599 µM
41 | O=C(Oc1ccc2[nH]cc(CCNCc3ccccc3)c2c1)N1CCCC1 [3r] | 1.82 µM
42 | O=C(Oc1ccc2[nH]cc(CCNCc3ccccc3)c2c1)N1CCCCCC1 [3t, 3-(2-(benzylamino)ethyl)-1H-indol-5-yl azepane-1-carboxylate] | > 100 µM
43 | O=C(Oc1ccc2[nH]cc(CCNCc3ccccc3)c2c1)N1CCOCC1 [3u, 3-(2-(benzylamino)ethyl)-1H-indol-5-yl morpholine-4-carboxylate] | > 100 µM
44 | CCCCCNC(=O)Oc1ccc2[nH]cc(CCN)c2c1 [4c, 3-(2-aminoethyl)-1H-indol-5-yl pentylcarbamate] | > 100 µM
45 | CCCCCCNC(=O)Oc1ccc2[nH]cc(CCN)c2c1 [4d, 3-(2-aminoethyl)-1H-indol-5-yl hexylcarbamate] | > 100 µM
